Experimental data as given in ChEMBL document CHEMBL1201862, “PubChem BioAssay data set” (2004).
Calls of active or inactive are those of the source. Rule as the data show it, for most assays here: actives have a measured EC50 and inactives only a lower limit.

How the values were obtained:
[1] = molecular target: T1, Heat shock factor protein 1 (Mus musculus, UniProt P38532); test: enhancement of HSF1-driven luciferase signal – cell-based, NIH3T3, luminescence, dose retest, confirmation (AID 435004); type: functional;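 also: stress induced by proteasome inhibitor MG132 added 30 min after compound; luciferase reporter driven by HSF1 response element in NIH3T3 cells; actives raise luminescence as potentiators of the MG132 stress response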
T1 sequence (P38532 whole entry): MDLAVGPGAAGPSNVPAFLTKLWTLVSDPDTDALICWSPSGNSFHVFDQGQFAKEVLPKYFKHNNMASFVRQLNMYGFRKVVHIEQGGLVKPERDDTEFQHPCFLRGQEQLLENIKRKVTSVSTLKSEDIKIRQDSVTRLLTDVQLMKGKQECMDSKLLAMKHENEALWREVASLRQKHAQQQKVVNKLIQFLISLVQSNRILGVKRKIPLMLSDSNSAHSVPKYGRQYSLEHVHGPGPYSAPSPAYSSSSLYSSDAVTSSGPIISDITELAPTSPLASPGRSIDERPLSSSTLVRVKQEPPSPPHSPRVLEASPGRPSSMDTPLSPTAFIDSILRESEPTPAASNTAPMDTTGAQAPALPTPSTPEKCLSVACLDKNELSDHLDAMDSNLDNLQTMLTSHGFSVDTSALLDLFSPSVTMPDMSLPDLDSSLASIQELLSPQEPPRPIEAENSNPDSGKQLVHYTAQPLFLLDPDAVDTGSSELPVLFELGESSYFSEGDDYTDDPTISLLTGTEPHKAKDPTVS

INS1 = test: INS-1E survival protection against cytokine death – cell-based, luminescence, retest, dose response (AID 449756); type: functional; conditions: Rattus norvegicus;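 also: cell death triggered by IL-1 beta plus TNF-alpha plus IFN-gamma mixture; protective hits raise ATP signal compared with cytokine alone wells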
[2] = Luminescence Cell-Based Dose Confirmation HTS to Identify Activators of 5'UTR Stem-Loop Driven Alpha-Synuclein mRNA Translation in H4 Neuroglioblastoma Cells. [Related pubchem assays: 1829 (Project Summary), 1814 (Primary HTS)]; type: functional
[3] = Luminescence Cell-Based Dose Response HTS to Identify Activators of Luciferase Translation or Activity in H4 […] Cells. [Related pubchem assays: 1829 (Project Summary), 1814 (Primary HTS)]; type: functional
H4 = test: Luminescence Cell-Based Dose Response HTS to Identify Activators of 5'UTR Stem-Loop Driven Prion Protein mRNA Translation in H4 Neuroglioblastoma Cells. [Related pubchem assays: 1829 (Project Summary), 1814 (Primary HTS)]; type: functional; conditions: Homo sapiens
[4] = system: Streptococcus sp. 'group A'; test: Streptococcus pyogenes SK(-)GAS viability under kanamycin – luminescence, BacTiterGlo, confirmation, counter-screen for streptokinase expression inhibitor project, dose response (AID 1900); type: functional, organism-based
Streptokinase A = molecular target: T2, Streptokinase A (Streptococcus pyogenes serotype M1, UniProt P10520); test: viability-normalized secreted streptokinase activity reduction – plasminogen activation absorbance, OD405, dose response (AID 1914); type: functional, Streptococcus pyogenes M1 GAS;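 also: secreted streptokinase activity via plasminogen activation per viability signal from cell pellet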
T2 sequence (P10520 whole entry): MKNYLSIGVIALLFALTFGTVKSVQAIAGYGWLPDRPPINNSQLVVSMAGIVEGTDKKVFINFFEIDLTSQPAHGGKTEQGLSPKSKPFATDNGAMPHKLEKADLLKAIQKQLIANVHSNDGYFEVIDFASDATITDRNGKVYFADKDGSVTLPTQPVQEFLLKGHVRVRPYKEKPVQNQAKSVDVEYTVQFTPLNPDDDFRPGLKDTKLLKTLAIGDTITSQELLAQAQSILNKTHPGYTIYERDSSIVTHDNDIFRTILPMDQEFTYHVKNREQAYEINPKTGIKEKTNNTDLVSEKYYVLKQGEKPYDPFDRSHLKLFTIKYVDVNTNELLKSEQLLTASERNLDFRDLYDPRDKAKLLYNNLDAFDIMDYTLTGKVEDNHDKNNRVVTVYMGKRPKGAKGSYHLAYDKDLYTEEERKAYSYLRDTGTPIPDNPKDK

Streptococcus = test: GAS UMAA2166 growth inhibition – luminescence, BacTiterGlo, counter-screen for streptokinase expression inhibitor project, dose response (AID 1915); type: functional, organism-based;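 also: potency for reduction of bacterial viability or growth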
[5] = Luminescence Cell-Based Dose Retest to Confirm Inhibitors of Cancer Stem Cells. [Related pubchem assays (depositor defined):AID2717, AID2721]; type: functional; conditions: Homo sapiens
cells = type: functional
[6] = molecular target: T3, Corticotropin-releasing factor receptor 2/Corticotropin-releasing factor-binding protein (Homo sapiens, UniProt P24387+Q13324); test: Dose Response confirmation of uHTS hits for small molecule antagonists of the CRF-binding protein and CRF-R2 receptor complex.; type: functional; conditions: read-out: IC50_Mean
T3 sequence (Q13324 whole entry): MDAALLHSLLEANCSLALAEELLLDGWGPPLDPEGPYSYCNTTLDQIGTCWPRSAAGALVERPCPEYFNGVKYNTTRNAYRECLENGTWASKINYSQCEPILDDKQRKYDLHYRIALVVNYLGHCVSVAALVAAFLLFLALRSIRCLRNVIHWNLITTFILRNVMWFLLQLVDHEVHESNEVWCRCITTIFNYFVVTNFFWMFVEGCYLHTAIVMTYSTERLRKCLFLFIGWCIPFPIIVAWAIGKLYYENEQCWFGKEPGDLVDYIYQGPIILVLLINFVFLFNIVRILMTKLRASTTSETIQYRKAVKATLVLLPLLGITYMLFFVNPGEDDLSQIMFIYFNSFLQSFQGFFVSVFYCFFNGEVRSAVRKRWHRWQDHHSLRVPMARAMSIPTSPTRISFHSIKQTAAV
T3 sequence (P24387 whole entry): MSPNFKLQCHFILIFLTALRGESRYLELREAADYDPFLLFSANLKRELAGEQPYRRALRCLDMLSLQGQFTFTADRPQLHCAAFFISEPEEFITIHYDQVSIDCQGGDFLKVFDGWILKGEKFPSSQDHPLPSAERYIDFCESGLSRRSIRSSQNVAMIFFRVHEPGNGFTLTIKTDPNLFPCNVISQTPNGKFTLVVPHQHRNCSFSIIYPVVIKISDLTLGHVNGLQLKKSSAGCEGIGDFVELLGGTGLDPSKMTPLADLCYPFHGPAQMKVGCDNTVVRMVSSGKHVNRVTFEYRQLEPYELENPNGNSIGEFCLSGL

[7] = molecular target: T3, Corticotropin-releasing factor receptor 2/Corticotropin-releasing factor-binding protein; test: activators of CRF receptor 2 with binding protein – uHTS hits, confirmation (AID 602473); type: functional; conditions: read-out: EC50_Mean
[8] = NIH-3T3 fibroblast cytotoxicity, dose response, cytotoxicity control, cell-based, fluorescence, Alamar Blue, secondary assay (AID 2327); type: functional;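 also: NIH-3T3 mouse fibroblasts cultured with fluconazole at 8 µg/mL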
[9] = fluconazole-exposed Candida albicans growth modulators – fluorescence, retest, confirmation (AID 2467); type: functional, cell-based
[10] = Trypanosoma cruzi growth suppression in host cells – NIH3T3 host cells, beta-gal luminescence, confirmation (AID 2044); type: functional, cell-based;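 also: intracellular parasites grown in NIH/3T3 mouse fibroblasts as host cells; luminescent beta-galactosidase reporter signal from transgenic T. cruzi replicating inside host cells; inhibitors lower the luminescence signal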
[11] = NIH3T3 cell viability loss – ATP luminescence, mouse fibroblasts, counter-screen, dose response (AID 2010); type: functional, cell-based;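 also: cells exposed to compound for about 90 hours before reading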
[12] = viability of uninfected HEp-2 cells – cell-based, HTS, cytotoxicity control for RSV inhibitor project, dose response (AID 2410); type: functional; conditions: human respiratory syncytial virus
[13] = molecular target: T1, Heat shock factor protein 1; test: decrease of HSF1-responsive luciferase luminescence – cell-based, NIH3T3, dose retest, confirmation (AID 2382); type: functional;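 also: NIH3T3 fibroblasts with HSF1-driven luciferase reporter stressed by proteasome inhibitor MG132; luminescence from HSF1-driven luciferase expression after 8 hours of MG132 stress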
Cytochrome P450 2C9 = Cytochrome P450 2C9 (Homo sapiens, UniProt P11712)
Paired box protein Pax-8 = Paired box protein Pax-8 (Homo sapiens, UniProt Q06710); test: PAX8 transcriptional activity inhibition in RMG-I – RMG-I cells, luciferase, cherry-pick, dose response (AID 687027); type: functional, cell-based;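 also: luciferase reporter driven by Pax8 target thyroperoxidase promoter measured by SteadyGlo luminescence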
Chain of Paired box protein Pax-8 (Q06710 whole entry): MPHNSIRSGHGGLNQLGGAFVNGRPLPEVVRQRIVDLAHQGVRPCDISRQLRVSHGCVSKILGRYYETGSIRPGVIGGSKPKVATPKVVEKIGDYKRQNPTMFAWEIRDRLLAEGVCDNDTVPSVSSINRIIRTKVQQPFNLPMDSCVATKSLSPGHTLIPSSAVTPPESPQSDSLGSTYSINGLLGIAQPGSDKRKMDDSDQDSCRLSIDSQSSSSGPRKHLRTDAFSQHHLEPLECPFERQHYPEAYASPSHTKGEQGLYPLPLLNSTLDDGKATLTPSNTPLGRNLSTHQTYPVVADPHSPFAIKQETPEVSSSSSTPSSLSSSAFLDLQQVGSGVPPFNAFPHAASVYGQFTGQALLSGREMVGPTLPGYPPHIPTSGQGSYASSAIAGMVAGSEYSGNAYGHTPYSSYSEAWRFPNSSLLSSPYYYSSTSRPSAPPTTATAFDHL

Chain of Cytochrome P450 2C9 (P11712 whole entry): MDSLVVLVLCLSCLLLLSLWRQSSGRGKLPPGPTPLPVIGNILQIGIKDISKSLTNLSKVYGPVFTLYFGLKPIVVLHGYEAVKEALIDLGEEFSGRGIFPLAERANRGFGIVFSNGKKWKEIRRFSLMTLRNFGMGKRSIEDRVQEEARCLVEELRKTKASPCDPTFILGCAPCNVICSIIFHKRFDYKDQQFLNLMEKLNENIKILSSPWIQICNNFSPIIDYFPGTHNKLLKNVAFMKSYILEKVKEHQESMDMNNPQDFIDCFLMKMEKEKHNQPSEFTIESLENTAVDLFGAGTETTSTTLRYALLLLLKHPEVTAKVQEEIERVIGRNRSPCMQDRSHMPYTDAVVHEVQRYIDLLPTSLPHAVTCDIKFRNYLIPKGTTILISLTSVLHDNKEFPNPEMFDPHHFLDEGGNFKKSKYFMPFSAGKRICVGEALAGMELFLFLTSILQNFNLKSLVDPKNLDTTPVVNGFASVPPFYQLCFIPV

## O=c1[nH]c2ccccc2n1CCC1CCCCC1
[1]
  EC50: > 260 µM (inactive)

## Cc1ccc(C)c(N2CCN(C(=O)CCCOc3cc(=O)n(C)c4ccccc34)CC2)c1
INS1
  AC50: 2.78 µM (active)

## c1ccc2oc(C3=NN=C(NC4CC4)SC3)cc2c1
[2]
  EC50: > 120 µM (not active)
[3]
  EC50: > 120 µM (not active)
H4
  EC50: > 120 µM (not active)

## O=C(Nc1ccc(Cl)c(Cl)c1)O/N=C/c1ccncc1
[4]
  EC50: 1.75 µM (active)
Streptokinase A
  EC50: > 150 µM (not active)
Streptococcus
  EC50: 36.5 µM (active)
[5]
  AC50: 5.98 µM (active)
cells
  IC50: 9.54 µM (active)

## Nc1c(C(=O)N2CCOCC2)sc2nc3c(cc12)CCC3
[6]
  IC50: > 47.1 µM (inactive)
[7]
  EC50: > 53 µM (inactive)

## CSC1=NCCN1C(=O)Cc1ccc(Cl)cc1
[6]
  IC50: > 47.1 µM (inactive)
[7]
  EC50: > 53 µM (inactive)

## Cc1cc(Cl)ccc1C(=O)C1CCCN(C(=O)c2cnsn2)C1 (stereo unspecified)
[1]
  EC50: > 260 µM (inactive)

## Cc1nn2c3ccccc3nc2n(C)c1=O
[6]
  IC50: > 47.1 µM (inactive)
[7]
  EC50: > 53 µM (inactive)

## CCc1nnc(NC(=O)c2ccc(-c3ccccc3Cl)o2)s1
[2]
  EC50: > 120 µM (not active)
[3]
  EC50: 6.73 µM (active)
H4
  EC50: 18.9 µM (active)

## Cc1nc2scc(-c3ccc(Cl)cc3)c2c(=O)n1N
[1]
  EC50: > 260 µM (inactive)

## Cc1ccc(S(=O)(=O)N(CC(=O)N=Nc2c(O)[nH]c3ccccc23)c2ccc(C)c(C)c2)cc1
[6]
  IC50: 3.25 µM (active)
[7]
  EC50: > 53 µM (inactive)

## COc1ccc(/N=C/C=C2\C=C(c3ccccc3)OC(C)(C)O2)cc1
[2]
  EC50: > 120 µM (not active)
[3]
  EC50: 10.2 µM (active)
H4
  EC50: > 120 µM (not active)

## Cc1cccc(N=C(S)N(CCN(C)C)C(C)c2cccnc2)c1 (stereo unspecified)
[1]
  EC50: > 260 µM (inactive)

## CC(C)=CCc1cc2c(=O)c3c(O)c4c(cc3oc2c(O)c1O)OC(C)C4(C)C (stereo unspecified) [GERONTOXANTHONE G]
[8]
  EC50: > 160 µM (inactive)
[9]
  EC50: > 38 µM (not active)
[10]
  EC50: 2.64 µM (active)
[11]
  EC50: 6.31 µM (active)
INS1
  AC50: 5.18 µM (active)

## CCCC12C(=O)C(C)(C(c3ccccc3)=C1c1ccccc1)C1C(=O)N(c3ccc(C)cc3)C(=O)C12 (stereo unspecified)
INS1
  AC50: 4.16 µM (active)

## Cc1nc2ccc(Br)cc2c(=O)n1Cc1cccs1
[1]
  EC50: > 260 µM (inactive)

## COCCNC(=O)CSC1=N/C(=C/c2ccc(Cl)c(Cl)c2)C(=O)N1c1ccccc1F
[12]
  CC50: 47.8 µM (active)
[13]
  EC50: 20 µM (active)
INS1
  AC50: 8.64 µM (active)

## CO/C(O)=C1\C(C)=NC(=S)NC1c1ccc(-c2cccc(Cl)c2)o1 (stereo unspecified)
[1]
  EC50: > 260 µM (inactive)

## CC(=O)/N=c1/sc(S(N)(=O)=O)nn1C [METHAZOLAMIDE]
[6]
  IC50: > 47.1 µM (inactive)
[7]
  EC50: > 53 µM (inactive)
Cytochrome P450 2C9
  AC50: 12.6 µM (inconclusive)

## O=C(NC1CCCCC1)NS(=O)(=O)c1ccc2c(c1)CCC2 [GLYHEXAMIDE]
[6]
  IC50: > 47.1 µM (inactive)
[7]
  EC50: > 53 µM (inactive)

## COc1ccc(-c2nnc3c4ccccc4c(C)nn23)cc1
[2]
  EC50: 13.3 µM (active)
[3]
  EC50: 18.6 µM (active)
H4
  EC50: > 120 µM (not active)

## CCCCC/N=C(/C)c1c(O)oc2ccccc2c1=O
[2]
  EC50: > 120 µM (not active)
[3]
  EC50: 61.4 µM (active)
H4
  EC50: 9.36 µM (active)

## Cc1cc(S(=O)(=O)Nc2ccc(C(=O)NCC(C)(C)N3CCOCC3)cc2)ccc1F
[13]
  EC50: > 195 µM (not active)
[6]
  IC50: > 47.1 µM (inactive)
[7]
  EC50: > 53 µM (inactive)

## COc1ccc(-[n+]2c(-c3ccc(Br)cc3)cn3c2CCCCC3)cc1
[10]
  EC50: 0.552 µM (active)
[11]
  EC50: > 60 µM (not active)
INS1
  AC50: 1.15 µM (active)

## O=c1c(-c2ccc3c(c2)OCCO3)coc2cc(O)cc(O)c12
[1]
  EC50: 19.2 µM (active)

## COc1ccc(/C=C/C(=O)NCCCc2ccccc2)cc1
[1]
  EC50: > 260 µM (inactive)

## O=C1N=C(N/N=C/c2ccc(F)cc2)SC1c1ccccc1 (stereo unspecified)
[6]
  IC50: > 47.1 µM (inactive)
[7]
  EC50: > 53 µM (inactive)

## CCCCON1C(=O)c2cccc3cccc(c23)C1=O
[6]
  IC50: > 47.1 µM (inactive)
[7]
  EC50: > 53 µM (inactive)

## Cc1nc(SCC(=O)c2cccs2)c2oc3ccccc3c2n1
[2]
  EC50: 21.5 µM (active)
[3]
  EC50: 16 µM (active)
[4]
  EC50: 21.2 µM (active)
H4
  EC50: 68 µM (active)
Streptokinase A
  EC50: > 150 µM (not active)
Streptococcus
  EC50: 20.1 µM (active)

## OC1(C(F)(F)F)CC(O)(C(F)(F)F)n2nc(-c3ccccc3)cc2N1 (stereo unspecified)
[2]
  EC50: > 120 µM (not active)
[3]
  EC50: > 120 µM (not active)
H4
  EC50: 11 µM (active)

## Cc1cc(N(C)C)c(C#N)c(NCc2ccccc2)n1
[1]
  EC50: > 260 µM (inactive)

## Cc1nc2cc(NC(=O)c3ccc(S(=O)(=O)N(C)c4ccccc4)cc3)ccc2o1
[2]
  EC50: 26 µM (active)
[3]
  EC50: 23.9 µM (active)
H4
  EC50: 15.1 µM (active)

## CC(C)N(Cc1nc(-c2ccc(Cl)cc2)no1)C(=O)CN(C)S(=O)(=O)c1ccc(Cl)cc1
[10]
  EC50: 2.71 µM (active)
[11]
  EC50: > 60 µM (not active)
[1]
  EC50: > 260 µM (inactive)

## C=CCn1c(SCC(=O)NC2CCCC2)nc2scc(-c3ccco3)c2c1=O
[1]
  EC50: > 260 µM (inactive)

## COc1ccc(CN2CC(=O)N(c3cccc(Cl)c3)C2=S)cc1OC
[6]
  IC50: > 47.1 µM (inactive)
[7]
  EC50: > 53 µM (inactive)

## C[C@@H]1CCCCO[C@@H](CN(C)Cc2ccc(C(F)(F)F)cc2)[C@H](C)CN([C@@H](C)CO)C(=O)c2cc(NS(=O)(=O)c3ccccc3)ccc2O1
Paired box protein Pax-8
  AC50: 4.66 µM (active)
